# Reference: US4156777A, “Process for producing glucopyranose-nitrosourea compounds and novel compounds included therein” (Tokyo Tanabe Company, Limited, priority 1977, dated 1979)
# Experiments:
# [1] = system: Proteus vulgaris AHU 1469; assay: Antibacterial activity, broth-dilution method; type: cell-based; conditions: AHU1469
# Excerpt: (§1) Using 6DCNU and 6MCαG, minimum inhibiting concentrations (referred to as "MIC") for various kinds of bacteria were estimated by means of the broth-dilution method.
# [2] = system: various kinds of bacteria; assay: Antibacterial activity (overall statement); type: cell-based; conditions: Table VI
# Excerpt: as §1
# [3] = known compounds, generally seen; cited from earlier work
SMILES,MIC [1] [µg/mL],"antibacterial activity, in words [2]","diabetogenic activity, decreasing order [3]"
"O=NN(CCCl)C(=O)NC[C@H]1OC(O)[C@H](O)[C@@H](O)[C@@H]1O (stereo partly drawn) [Example 6DCNU, 3-(D-glucopyranos-6-yl)-1-(2-chloroethyl)-1-nitrosourea]",> 200,no substantial antibacterial activity,
"CO[C@H]1O[C@H](CNC(=O)N(CCCl)N=O)[C@@H](O)[C@H](O)[C@H]1O [Example 6MCαG, 1-(2-chloroethyl)-3-(methyl α-D-glucopyranos-6-yl)-1-nitrosourea]",> 200,,SZ>DCNU>GANU> 2MCαG≈6MCαG
